Reference: article PMC9960827, “Cloning and Characterization of Trypanosoma congolense and T. vivax Nucleoside Transporters Reveal the Potential of P1-Type Carriers for the Discovery of Broad-Spectrum Nucleoside-Based Therapeutics against Animal African Trypanosomiasis” (International Journal of Molecular Sciences, 2023)
Where two headings read alike, the source gives them in different places. Marks after values point to notes of the source that are not given here.

Experiments:
T.b.b. B48 [1] = test: Alamar Blue (resazurin) assay, T. b. brucei B48; type: cell-based, Trypanosoma brucei brucei; conditions: Trypanosoma brucei, read-out: T.b.b. B48 EC50
Method: (§1) EC50 values were determined by plotting to an equation for a sigmoid curve with variable slope (GraphPad Prism 8). All values were the average of at least three independent determinations on different days.

L. mexicana SUPKO = test: microbe, parasite or virus in culture; type: cell-based, Leishmania mexicana; conditions: for SUPKO RF (Cas9): Resistance Factor = EC50(SUPKO)/EC50(Cas9)
In short: (§2)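 Dose-response data were plotted against a sigmoid equation allowing a variable slope, and the EC50 was read from that fit. Replicates were independent determinations on separate days, at least three per value, then averaged.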

TcoAT1 [2] = test: Uptake of [3H]-pentamidine and [3H]-diminazene in SUPKO+TcoAT1 versus SUPKO; type: cell-based, Trypanosoma congolense; conditions: 25 nM [3H]-pentamidine or 50 nM [3H]-diminazene, SUPKO+TcoAT1 vs SUPKO
Method: Uptake assays using radiolabeled trypanocides and/or nucleosides were carried out as described previously. Briefly, parasite cultures were harvested, washed twice in assay buffer (33 mM HEPES, 98 mM NaCl, 4.6 mM KCl, 0.5 mM CaCl2, 0.07 mM MgSO4, 5.8 mM NaH3PO4, 0.03 mM MgCl2, 23 mM NaHCO3, 14 mM D-glucose, pH 7.3), then resuspended and adjusted to a density of 1 × 10^8 cells/mL in assay buffer. The radiolabeled permeant in the presence or absence of different concentrations of potential inhibitors reconstituted in 100 μL assay buffer was deposited on top of 250 μL oil mix in microcentrifuge tubes; 1 × 10^7 parasites in 100 μL assay buffer were added to the tube and incubated for a pre-determined interval. The reaction was stopped by the addition of 1 mL of a high concentration of ice-cold unlabeled substrate in assay buffer (‘stop solution’) and centrifugation, or by immediate centrifugation at […] as appropriate. The microcentrifuge tubes were flash-frozen, and the bottom of each tube containing the cell pellet was cut off and transferred to a scintillation vial. Cell pellets were lysed in 2% SDS, after which scintillation fluid (Scintlogic U, Lablogic) was added, followed by overnight incubation in the dark. Scintillation was measured in a 300SL (Hidex) scintillation counter (Hidex). […]

T. congolense 6C3 [3] = test: microbe, parasite or virus in culture; type: cell-based, Trypanosoma congolense; conditions: for EC50: Trypanosoma congolense, diminazene resistant strain, resazurin, read-out: T. congolense 6C3 EC50; for T. congolense 6C3 RF: resistance factor = EC50 (test strain)/EC50(control strain)
Method: as §1

T. congolense IL3000 [4] = test: Alamar Blue (resazurin) assay, T. congolense IL3000; type: cell-based, Trypanosoma congolense; conditions: Trypanosoma congolense, read-out: T. congolense IL3000 EC50
Method: as §1

T. congolense IL3000 [5] = tested on: T. congolense IL3000; set-up: method as in Hulpia et al. [38]; conditions: values marked *; ref Hulpia et al. [38]; cited from earlier work
L. mexicana SUPKO+TcoAT1 = test: microbe, parasite or virus in culture; type: cell-based, Leishmania mexicana; conditions: for EC50: read-out: SUPKO+TcoAT1 EC50; for SUPKO+TcoAT1 RF (SUPKO): Resistance Factor relative to SUPKO
In short: as §2

L. mexicana SUPKO+TvxNT3 = test: microbe, parasite or virus in culture; type: cell-based, Leishmania mexicana; conditions: for EC50: read-out: SUPKO+TvxNT3 EC50; for SUPKO+TvxNT3 RF (SUPKO): Resistance Factor relative to SUPKO
In short: as §2

T.b.b. B48 [6] = tested on: T.b.b. B48; set-up: method as in Hulpia et al. [38]; conditions: compound marked *; ref Hulpia et al. [38]; cited from earlier work
T. evansi [7] = tested on: T. evansi; set-up: method as in Hulpia et al. [38]; conditions: compound marked *; ref Hulpia et al. [38]; cited from earlier work
L. mexicana Cas9 = test: Resazurin drug sensitivity assay, LmexCas9; type: cell-based, Leishmania mexicana; conditions: read-out: LmexCas9 EC50
In short: as §2

[8] = tested on: human embryonic kidney (HEK) cells; test: Resazurin toxicity assay on human embryonic kidney cells; type: cell-based; conditions: for SI T. congolense: selectivity index = EC50 (HEK cells)/EC50 (T. congolense); for SI T. equiperdum: selectivity index = EC50 (HEK cells)/EC50 (T. equiperdum); for SI T. evansi: selectivity index = EC50 (HEK cells)/EC50 (T. evansi)
Method: as §1

T. vivax [9] = test: T. vivax EC50 (from Mabille et al.); type: cell-based, Trypanosoma vivax; conditions: from Table 8 data
T. equiperdum [10] = tested on: T. equiperdum; set-up: method as in Hulpia et al. [38]; conditions: compound marked *; ref Hulpia et al. [38]; cited from earlier work
T. congolense 6C3 [11] = tested on: T. congolense 6C3; set-up: method as in Hulpia et al. [38]; conditions: values marked *; ref Hulpia et al. [38]; cited from earlier work
T. vivax [12] = tested on: T. vivax; set-up: method as in Mabille et al. [69]; conditions: added for comparison only; ref Mabille et al. [69]; cited from earlier work
TcoAT1 [13] = type: cell-based, Trypanosoma congolense
In short: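 Transporter genes were expressed in an L. mexicana line lacking NT1 and NT2 (SUPKO), and 1 × 10^7 cells in HEPES/bicarbonate buffer pH 7.3 took up radiolabeled permeant through an oil layer, with or without inhibitor. Uptake was stopped with ice-cold unlabeled substrate or by centrifugation, and pellets were counted. IC50 against radiolabeled adenosine was converted to Ki by Cheng–Prusoff using the permeant Km.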

T. evansi [14] = test: Alamar Blue (resazurin) assay, T. evansi; type: cell-based, Trypanosoma evansi; conditions: Trypanosoma evansi, read-out: T. evansi EC50
Method: as §1

T. equiperdum [15] = test: Alamar Blue (resazurin) assay, T. equiperdum; type: cell-based, Trypanosoma equiperdum; conditions: Trypanosoma equiperdum, read-out: T. equiperdum EC50
Method: as §1

[16] = Resazurin toxicity assay on human embryonic kidney cells; type: cell-based; conditions: human
Method: as §1

TvxNT3 = TvxNT3 (Trypanosoma vivax, UniProt F9WV62); test: cell-based; type: cell-based; conditions: Gibbs free energy of interaction, from Km or Ki
Text: The information for the T. congolense adenosine transporter (TcoAT1) and four putative T. vivax nucleoside transporters was obtained in the TritrypDB (tritrypdb.org/tritrypdb) genome database. Primers were designed to flank each gene upstream of the 5′ end (forward) and downstream of the 3′ end (reverse) as described (primer sequences in Supplementary Table S2). Following amplification from the genomic DNA of T. congolense or T. vivax, DNA for each extracted gene was ligated into the pNUS-HcN expression vector doubly digested with NdeI using the NEBuilder kit according to the manufacturer’s instructions (New England Biolabs). Construct was transformed into competent E. coli cells, and ligation was confirmed by restriction enzyme digestion of isolated plasmid DNA followed by Sanger sequencing (Source BioScience, Nottingham, UK). Confirmed plasmids were then transfected into L. mexicana cell line in which both NT1 and NT2 were doubly knocked out (SUPKO) and derived from L. mexicana Cas9 [64] as described. Clones grown in medium containing 50 μg/mL neomycin (G418) were collected for further confirmation by PCR with genomic DNA using a forward primer of the transporter gene and a reverse primer of the plasmid.
Uptake assays using radiolabeled trypanocides and/or nucleosides were carried out as described previously. Briefly, parasite cultures were harvested, washed twice in assay buffer (33 mM HEPES, 98 mM NaCl, 4.6 mM KCl, 0.5 mM CaCl2, 0.07 mM MgSO4, 5.8 mM NaH3PO4, 0.03 mM MgCl2, 23 mM NaHCO3, 14 mM D-glucose, pH 7.3), then resuspended and adjusted to a density of 1 × 10^8 cells/mL in assay buffer. The radiolabeled permeant in the presence or absence of different concentrations of potential inhibitors reconstituted in 100 μL assay buffer was deposited on top of 250 μL oil mix in microcentrifuge tubes; 1 × 10^7 parasites in 100 μL assay buffer were added to the tube and incubated for a pre-determined interval. The reaction was stopped by the addition of 1 mL of a high concentration of ice-cold unlabeled substrate in assay buffer (‘stop solution’) and centrifugation, or by immediate centrifugation at […] as appropriate. The microcentrifuge tubes were flash-frozen, and the bottom of each tube containing the cell pellet was cut off and transferred to a scintillation vial. Cell pellets were lysed in 2% SDS, after which scintillation fluid (Scintlogic U, Lablogic) was added, followed by overnight incubation in the dark. Scintillation was measured in a 300SL (Hidex) scintillation counter (Hidex). All the assays were conducted in triplicate and analysis was carried out using Microsoft Excel and GraphPad Prism. All kinetic parameters were obtained on at least 3 separate occasions.
The dose-dependent uptake assay allowed for the affinity of nucleoside analogs to different nucleoside transporters to be determined by measuring the extent to which the analogs compete with and inhibit the uptake of radiolabel adenosine. This allowed for the determination of biochemical parameters such as Km and Vmax through the application of the Michaelis–Menten equation V0 = Vmax([substrate]/([substrate] + Km)). The 50% Inhibitory Concentration (IC50) of the purines and pyrimidines and their analogs was determined from non-linear regression to sigmoid curves with variable slope (Prism 8), and the IC50 of the inhibitor and the Km of the labeled permeant were then used to calculate the inhibition constant (Ki) of the analogs through the Cheng–Prusoff equation: Ki = IC50/(1 + (L/Km)), where L denotes the radiolabel concentration. The calculated Ki was in turn used to determine the Gibbs free energy (ΔG^0) of the inhibitor–transporter interaction using the equation: ΔG^0 = -RTln(Ki), where R represents the gas constant and T symbolizes the absolute temperature in Kelvin [104].

[17] = Leishmania mexicana, read-out: SUPKO EC50, resazurin, promastigotes

Sequence of TvxNT3 (F9WV62 entry or part of it): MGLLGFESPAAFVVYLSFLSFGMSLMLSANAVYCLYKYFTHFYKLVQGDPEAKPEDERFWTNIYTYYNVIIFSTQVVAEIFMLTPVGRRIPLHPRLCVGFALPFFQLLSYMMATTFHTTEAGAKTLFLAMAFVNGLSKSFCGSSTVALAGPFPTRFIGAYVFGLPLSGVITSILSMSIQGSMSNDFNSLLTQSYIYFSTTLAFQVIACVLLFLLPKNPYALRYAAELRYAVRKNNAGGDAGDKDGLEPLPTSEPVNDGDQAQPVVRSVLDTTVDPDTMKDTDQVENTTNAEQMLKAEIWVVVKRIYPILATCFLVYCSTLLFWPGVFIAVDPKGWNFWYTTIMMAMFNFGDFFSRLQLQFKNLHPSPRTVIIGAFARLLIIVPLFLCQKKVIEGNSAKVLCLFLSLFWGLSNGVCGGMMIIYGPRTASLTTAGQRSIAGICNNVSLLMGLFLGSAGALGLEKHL

SMILES | EC50 (T.b.b. B48 [1]) [nM] | SUPKO RF (Cas9) (L. mexicana SUPKO) | EC50 (T. congolense 6C3 [3]) [nM] | T. congolense 6C3 RF (T. congolense 6C3 [3]) | EC50 (T. congolense IL3000 [4]) [nM] | SI T. congolense [8] | SI T. equiperdum [8] | SI T. evansi [8] | EC50 (T. vivax [12]) [nM] | EC50 (L. mexicana SUPKO; [17]) [nM] | EC50 (L. mexicana SUPKO+TcoAT1; Leishmania mexicana) [nM] | SUPKO+TcoAT1 RF (SUPKO) (L. mexicana SUPKO+TcoAT1) | EC50 (L. mexicana SUPKO+TvxNT3; Leishmania mexicana) [nM] | SUPKO+TvxNT3 RF (SUPKO) (L. mexicana SUPKO+TvxNT3) | EC50 (L. mexicana Cas9; Leishmania mexicana) [nM] | EC50 [16] [nM] | other results
N=C(N)c1ccc(/N=N/Nc2ccc(C(=N)N)cc2)cc1 [Diminazene, reference compound] | 340 ± 130 | 1.27 | 1320 ± 430 | 5.7 ^a | 230 ± 40 |  |  |  |  |  |  |  |  |  |  |  | effect of the expression of TcoAT1 on the uptake of the trypanocide (TcoAT1 [2]): no effect
Nc1ncnc2c1c(-c1ccccn1)cn2[C@@H]1O[C@H](CO)[C@@H](O)[C@H]1O [TH1008] |  | >8.5 |  | 0.33 |  | 110 | 303 | 466 | 12900 ± 4400 |  |  |  |  |  |  |  | EC50 (T. congolense IL3000 [5]): 170 ± 50 nM; EC50 (L. mexicana SUPKO; resazurin, promastigotes, read-out: SUPKO EC50): > 100000 nM; EC50 (L. mexicana SUPKO+TcoAT1; resazurin, promastigotes): > 100000 nM; EC50 (L. mexicana SUPKO+TvxNT3; resazurin, promastigotes): > 100000 nM; EC50 (T.b.b. B48 [6]): 390 ± 30 nM; EC50 (T. evansi [7]): 40 ± 5 nM; EC50 (L. mexicana Cas9; resazurin, promastigotes): 11700 ± 500 nM; EC50 ([8]; resazurin, 96 well plates, read-out: HEK EC50): 18500 ± 1500 nM; fold higher EC50 against T. vivax compared to T. congolense (T. vivax [9]): 10–165 fold; EC50 (T. equiperdum [10]): 61 ± 5 nM; EC50 (T. congolense 6C3 [11]): 56 ± 13 nM
Nc1ncnc2c1c(Br)cn2[C@@H]1O[C@H](CO)C[C@H]1O [FH7429_u, 7-bromo-7-deaza-3′-deoxyadenosine] | 4.8 ± 0.5 | >3.6 | 0.49 ± 0.09 | 0.71 | 0.69 ± 0.07 | 3158 | 4271 | 2430 | 18 ± 3 | > 250000 | 27000 ± 5800 | >7.4 | 42900 ± 12000 | >2.33 | 27300 ± 7000 | 2180 ± 410 | Ki (TcoAT1 [13]; 0.05 µM [3H]-adenosine, 10 s, IC50 converted to Ki, read-out: Ki on the transport of [3H]-adenosine): 259000 ± 11000 nM; ΔG0 (TcoAT1 [13]; Gibbs free energy of binding, from Km or Ki): -4.9 kcal/mol; EC50 (T. evansi [14]): 0.9 ± 0.22 nM; EC50 (T. equiperdum [15]): 0.51 ± 0.07 nM; ΔG0 (TvxNT3): -5.14 kcal/mol
Nc1ncnc2c1c(F)cn2[C@@H]1O[C@H](CO)[C@@H](O)[C@H]1O [FH3167, 7-deaza-7-fluoroadenosine] | 160 ± 30 | 660 | 480 ± 100 | 1.06 |  | 1.1 | 15 | 2.7 | 38 ± 6 | 63400 ± 5500 | 7500 ± 900 | 8.48 | 57200 ± 6800 | 1.1 | 96 ± 9 | 490 ± 50 | EC50 (T. evansi [14]; resazurin): 180 ± 23 nM; EC50 (T. equiperdum [15]; resazurin): 32 ± 7 nM; EC50 (T. congolense IL3000 [4]; BSF, resazurin): 450 ± 620 nM
